Assay results taken from patent publication US20160058712A1, “3-HYDROXYPTEROSTILBENE AND THERAPEUTIC APPLICATIONS THEREOF” (priority 2014, published 2016).

Key:
COLO 205 cells [1] = assay: MTT cell viability assay, COLO 205; format: cell-based; conditions: Homo sapiens, COLO205, MTT, 24 h
Procedure: (§1) The human colon cancer cell lines COLO 205, HCT116 and HT29 were purchased from the American Type Culture Collection (Rockville, Md.). Cell lines were grown in RPMI1640 supplemented with 10% heat inactivated fetal bovine serum (GIBCO BRL, Grand Island, N.Y.), 100 units/mL of penicillin, 100 μg/mL of streptomycin), 2 mM L-glutamine (GIBCO BRL, Grand Island, N.Y.), and were kept at 37° C. in a humidified 5% CO2 incubator. Pterostilbene and 3-HPT were dissolved in dimethyl sulfoxide (DMSO, as final concentration of 0.05%). Cells were treated with 0.05% DMSO as vehicle control.
(§2) Cell viability was assayed by 3(4,5-dimethylthiazol-2-yl)-2,5-diphenyltetrazolium bromide (MTT). Briefly. COLO 205, HCT116 and HT29 cells were plated at a density of 2×10^2 cells/mL into 96 well plates. After overnight growth, cells were treated with a series of concentrations of pterostilbene or 3-hydroxypterostilbene for 24 h. The final concentrations of DMSO in the culture medium were <0.05%. At the end of treatment, 0.2% MTT was added and cells were incubated for a further 4 h. Cell viability was determined by scanning with an ELISA reader with a 570 nm filter.

HCT-116 cells = assay: MTT cell viability assay, HCT116; format: cell-based; conditions: Homo sapiens; HCT-116, MTT, 24 h
Procedure: as §1, §2

HT-29 cells = assay: MTT cell viability assay, HT29; format: cell-based; conditions: Homo sapiens; HT-29, MTT, 24 h
Procedure: as §1, §2

[2] = test system: PC-3 (Human prostate cancer cell line); assay: MTT cell viability assay, PC-3; format: cell-based; conditions: Homo sapiens; PC-3, MTT
Procedure: as §2
The MTT reaction explained in Para 0040 was also used to assess the cell viability of human prostate cancer cells (PC-3) in the presence of pterostilbene and 3-hydroxypterostilbene. The results (FIG. 1) are represented in Table II.

COLO 205 cells [3] = assay: Flow cytometry analysis of subG1 cell population (PI staining); format: cell-based, human; conditions: 24 h
Procedure: For subG1 cell population analysis, COLO 205 cells (2×10^5 cells/mL) were cultured in 12 well and treatment with various concentrations of pterostilbene or 3-hydroxypterostilbene for 24 h. The cells were then harvested, washed with PBS, re-suspended in 200 μL of PBS, and fixed in 800 μL of iced 100% ethanol at […]. After being left to stand overnight, the cell pellets were collected by centrifugation, re-suspended in 1 mL of hypotonic buffer (0.5% Triton X100 in PBS and 0.5 μg/mL RNase) with PI (50 μg/mL) and incubated at 37° C. in the dark for 30 min. Fluorescence emitted from the PIDNA complex was quantitated after excitation of the fluorescent dye by FACScan cytometry (Becton Dickinson, San Jose, Calif.). […] The results indicated a higher apoptotic potential of 3-hydroxypterostilbene for COLO 205 cells.

COLO 205 cells [4] = assay: Mitochondrial membrane potential by DiOC6 flow cytometry; format: cell-based, human; conditions: COLO 205, 50 μM, 15 min; shifted from 224
Procedure: (§3) For mitochondrial membrane potential and ROS production, COLO 205 cells were treated as described under Example III for 15 min, and then DiOC6 [3,3′-dihexyloxacarbocyanine iodide] (40 nM) or DCFHDA [2′,7′-dichlorodihydrofluorescein diacetate] (20 μM) was added to the medium for a further 30 min at 37° C. After washing with PBS, the fluorescence intensity was determined by FAC Scan cytometry. The DiOC6 fluorescence intensity shifted to the left from 224 to 117 and 75 in pterostilbene and 3-HPT induced apoptotic COLO 205 cells, respectively. […] The role of ROS in the induction of apoptosis is well recognized. […] The imbalance of ROS concentrations could play an important role as an early mediator in 3-HPT induced apoptosis.

COLO 205 cells [5] = assay: ROS production by DCFHDA flow cytometry; format: cell-based, human; conditions: COLO 205, 50 μM, 15 min; from 114
Procedure: as §3

[6] = test system: COLO 205 xenograft tumors; assay: COLO 205 xenograft model; format: in vivo; conditions: 10 mg/kg/d i.p., 15 days, nude mice
Procedure: Male Balb/c nude mice at 3-4 weeks old (weighing 16-18 g) were obtained from the BioLASCO Experimental Animal Center (BioLASCO, Taipei, Taiwan). All animals were maintained in pathogen free sterile isolators and in a controlled atmosphere (25±1° C. at 50% relative humidity) and with a 12 h light-12 h dark cycle according to institutional guidelines. Animals were fed with standard AIN76 diet and all food, water, caging, and bedding were sterilized prior to use. Animals had free access to food and water at all times. Food cups were replenished with fresh diet every day. All animal experimental protocol used in this study was approved by Institutional Animal Care and Use Committee of the National Kaohsiung Marine University (IACUC, NKMU, #099AAA902, Validity dates: Jan. 1, 2009 Jul. 31, 2012). After 1 week of acclimation, colon cancer COLO 205 cells (5×10^6) in 0.2 mL PBS were injected subcutaneously between the scapulae of each nude mouse. After transplantation, tumor size was measured using calipers, and the tumor volume was estimated according to the following formula: tumor volume […]=L×W2/2, where L is the length and W is the width. Once tumors reached a mean size of […], mice were randomly divided into three groups (6 animals/group). Mice were i.p. injection with pterostilbene or 3-hydroxypterostilbene (10 mg/kg/d, respectively) for 15 days, while control animals were received injection of corn oil. The diet intake and body weight of each animal was monitored every day. The tumor volume was assessed and recorded every 5 days using caliper measurements. After 15 days, the mice were sacrificed by […] and the liver, kidneys, spleen and solid tumors were excised immediately and weighed. Average tumor volume and tumor weight of each group were represent the mean±standard deviation (SD). Average tumor volumes were recorded during the treatment and average tumor weights were measured at the end of experiment. Six samples were analyzed in each group, and values represent the mean±SD. *P<0.05 and **P<0.01, compared with control group. #P<0.05, compared with pterostilbene treated group. The tumor tissues were cut into several portion for western blot analysis or stored at −80° C. […] Furthermore, in mice receiving these treatment regimens, no gross signs of toxicity were observed during visible inspections of general appearance and microscopic examinations of individual organs. • 2.

Compound: COc1cc(/C=C/c2ccc(O)cc2)cc(OC)c1 [Pterostilbene, pterostilbene]
- IC50 (COLO 205 cells [1]): 33.4 ± 0.2 µM
- IC50 (HCT-116 cells): 47.1 ± 0.6 µM
- IC50 (HT-29 cells): 80.6 ± 3.3 µM
- IC50 [2]: > 20 µM
- percentage of apoptotic COLO 205 cells (subG1) (COLO 205 cells [3]; 5 μM): 6.2%
- percentage of apoptotic COLO 205 cells (subG1) (COLO 205 cells [3]; 10 μM): 8.4%
- percentage of apoptotic COLO 205 cells (subG1) (COLO 205 cells [3]; 25 μM): 10.2%
- percentage of apoptotic COLO 205 cells (subG1) (COLO 205 cells [3]; 50 μM): 14.8%
- DiOC6 fluorescence intensity (mitochondrial membrane potential) (COLO 205 cells [4]): 117
- mean DCFHDA fluorescence intensity (ROS) (COLO 205 cells [5]): 141
- side effects or toxicity (body and organ weights, gross signs) [6]: no noticeable side effects or toxicity
